Data on two compounds can be found in ChEMBL document CHEMBL3576807, “Crystal Structures of mPGES-1 Inhibitor Complexes Form a Basis for the Rational Design of Potent Analgesic and Anti-Inflammatory Therapeutics” (J Med Chem, 2015).

Test [1] concerns the target T1, Prostaglandin E synthase (Homo sapiens) (UniProt O14684).
T1 sequence (whole entry): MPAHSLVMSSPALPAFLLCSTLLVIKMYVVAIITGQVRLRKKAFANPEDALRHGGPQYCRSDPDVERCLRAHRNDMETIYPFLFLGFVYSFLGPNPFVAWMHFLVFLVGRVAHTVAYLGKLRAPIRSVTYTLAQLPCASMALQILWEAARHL
Briefly: Binding affinity to mPGES-1 (unknown origin) assessed as increase in protein aggregation temperature at 0.1 mM by differential static light scattering method.

Test [2] has as its target T2, Prostaglandin E synthase (Homo sapiens, UniProt O14684).
T2 sequence (O14684 whole entry): T1 sequence (whole entry)
As to the kind of experiment: Inhibition of recombinant human mPGES-1 expressed in human 293E cell microsomes using PGH2 as substrate assessed as PGE2 production after 2.5 mins by LC/MS analysis.

The target of test [3] is T2, Prostaglandin E synthase. Briefly: Inhibition of purified mPGES-1 (1 to 152) (unknown origin) extracted from detergent-solubilized baculovirus-infected insect Sf9 cell membranes using PGH2 as substrate assessed as PGE2 production after 2.5 mins by LC/MS analysis.

Take `CC(C)Oc1ccc(-n2c(C(=O)O)cc3cc(-c4ccc(C(C)(C)C)cc4)ccc32)cc1`: the deltaT in test [1] was 7.3 °C. In addition, the IC50 was 216 nM on Prostaglandin E synthase [2] and 2580 nM on Prostaglandin E synthase [3].

As for `Fc1cccc(Cl)c1-c1nc(-c2ccc(C#Cc3ccc(C(F)(F)F)cc3)nc2)c(Br)[nH]1`, in test [1], the deltaT worked out at 7.8 °C. For the same compound, the results for the IC50 on Prostaglandin E synthase [2] and on Prostaglandin E synthase [3] were 7 nM and 3940 nM, respectively.
